pEC50: −log10 of the molar value.
Legend:
2D-HLCs = test: Metabolite formation in 2D-HLCs by GC-MS; type: in vitro ADME, human; conditions: 1 mM, 6 h
Description: (§1) Regarding the study of methylone and pentedrone metabolite biosynthesis, in 2D-HLCs and 3D-HLCs, at the D17 of the HLCs differentiation, the cells were seeded in 6-well plates in 1 mL of culture medium at a density of 2.0 × 10^5 cells/well and 5.0 × 10^5 cells/well in 2D and 3D cultures, respectively. At D34, 2D-HLCs and 3D-HLCs were exposed to 1 mM of each enantiomer diluted in IMDM. Upon 6 h of incubation, the IMDM was removed and the pellets were quenched with 2 mL of ice-cold acetonitrile and scraped. The quenched solutions were centrifuged for 10 min at 4 °C. After the addition of methcathinone (internal standard) 100 µg/mL, the supernatants were derivatized with TFAA and analyzed by GC–MS [2, 41].
(§2) To study pentedrone and methylone metabolic profiles, we set up a methodology for the identification of pentedrone and methylone phase I metabolites based on a GC–MS methodology developed by Araujo et al. and Uralets et al. with some adaptations. Briefly, samples from the metabolic assays (200 μL) were evaporated to dryness under nitrogen flow. Then, 50 µL of ethyl acetate and 50 µL of TFAA (derivatizing agent) were added to the dried residue. Incubation was performed at 65 °C for 15 min. After cooling to room temperature, the extract was dried under nitrogen flow. The residue obtained was dissolved in 100 μL of ethyl acetate, and 2 μL was injected into the GC–MS apparatus.
(§3) GC–MS analysis was performed with a 436-GC model (Bruker Daltonics, Billerica, MA, USA) coupled to an EVOQ triple quadrupole mass spectrometer (Bruker Daltonics) and a Bruker MS workstation software version 8.2. The chromatographic separation was accomplished using a fused silica capillary column (Rxi-5Sil MS; 30 m × 0.25 mm × 0.25 μm; Restek Corporation, U.S., Bellefonte, PA, USA). The carrier gas was helium C-60 (Gasin, Portugal), at a constant flow of 1 mL/min. Injections were performed in split mode, with a ratio of 1/20. The injector port was heated to 250 °C. The initial column temperature was 80 °C, followed by a temperature increase of 15 °C/min to 150 °C and 10 °C/min to 300 °C. The MS detector was operated in EI mode (70 eV). The temperature of the transfer line, manifold and EI were 280, 40, and 270 °C, respectively. Data acquisition was performed in full scan mode with a mass range between 50 and 800 m/z at a scan rate of 8 scans/s. The emission current was 40 µA. Ionization was maintained off during the first 1.5 min to avoid solvent overloading. Total separation run time was 20 min.
The analysis was initially performed in full scan mode. […] For that, specific metabolites of methylone and pentedrone, already identified in previous studies, were selected to postulate their mass fragmentation according to their chemical structures (Figure 11) for posterior analysis using the specific ions (m/z in SIM mode) to identify and confirm the metabolite peaks. In SIM mode the selected m/z ions were: IS—m/z 77, 105, 110, and 154; methylone—m/z 121, 149, 154, and 303; nor-methylone—m/z 121, 140, 149, 168, 289, and 260; dihydromethylone—m/z 121, 154, 247, 280, and 401; DHMC—m/z 154, 182, 209, 237, and 391; N-hydroxymethylone—m/z 121, 149, 170, 198, and 319; nor-pentedrone—m/z 77, 105, 126, 168, and 273; dihydropentedrone—m/z 140, 182, 203, 272, and 385; and pentedrone—m/z 77, 105, 140, and 182.

3D-HLCs = test: Metabolite formation in 3D-HLCs by GC-MS; type: in vitro ADME, human; conditions: 1 mM, 6 h
Description: as §1, §2, §3
The analysis was initially performed in full scan mode. […]

SH-SY5Y cells = system: SH-SY5Y cells; set-up: method as in PMID 33609514; conditions: cited from earlier work
Caco-2 cell monolayer = system: Caco-2 cell monolayer; set-up: method as in PMID 32234388; conditions: cited from earlier work
[1] = system: 3D-HLCs (human stem-cell-derived hepatocyte-like cells); test: Cell viability (CellTiter-Glo 3D) in 3D spheroid HLCs; type: cell-based; conditions: 24 h; for concentrations at which cytotoxicity was observed: racemate, 3D-HLCs, compared to control cells
Description: (§4) The hnMSCs isolated from human umbilical cord stroma were fully characterized as described elsewhere and expanded in Eagle’s minimum essential medium—alpha modification (α-MEM) supplemented with 10% (v/v) of fetal bovine serum (FBS; Gibco, Paisley, UK). For generating HLCs, a three-step differentiation protocol was applied to hnMSCs, as detailed previously. Briefly, hnMSCs were seeded at a density of 1.5 × 10^5 cells/cm^2 in a rat-tail collagen (0.2 mg/mL) coated surface plates. At day 17 (D17) of differentiation, cells were trypsinized and reinoculated in Iscove’s modified Dulbecco’s medium (IMDM) with 8 ng/mL oncostatin M (OSM; Peprotech, Rocky Hill, NJ, USA), 1 µM dexamethasone, 1% dimethyl sulfoxide (DMSO) and 1% insulin-transferrin-selenium solution (Gibco, Grand Island, NY, USA), 20 µM of 5-azacytidine, and 5% (v/v) FBS into (i) ultra-low attachment (ULA; VWR International, Radnor, PA, USA) plates (5 × 10^5 cells/mL) to obtain a 3D spheroid culture or (ii) 2D culture plates pre-coated with collagen (2 × 10^4 cells/cm^2). Medium was changed 24 h after inoculation to remove 5-azacytidine and FBS. Cells were maintained until D34 in this medium, which was replaced every 3 days.
(§5) The cytotoxicity of the racemic mixtures (0.25, 0.5, 1.0, 2.0, 3.0, 4.0, 6.0, 8.0, 10.0, and 20.0 mM) and enantiomers (0.5 and 1.0 mM) of pentedrone and methylone were evaluated in both 2D monolayer and 3D spheroid cultures of HLCs, maintained as described above with slight changes. Briefly, at D17 of differentiation, cells were seeded in 96-well plates in 200 μL of culture medium at a density of 6.4 × 10^3 cells/well and 1.6 × 10^4 cells/well in 2D and 3D cultures, respectively. At D34, HLCs cultured in 2D and 3D were exposed to the abovementioned racemic mixtures and enantiomers diluted in IMDM. Cell viability was measured upon 24 h of incubation with the compounds using the CellTiter-Glo® 3D Cell Viability Assay (Promega, Madison, WI, USA), according to manufacturer instructions. Five percent DMSO was used as negative control and IMDM as positive control. IC50 was calculated for the racemic mixtures using a nonlinear regression fit for the Log10 transformation of the concentration values by using GraphPad Prism version 7.0 (GraphPad Software, La Jolla, CA, USA). Three independent experiments were performed.

[2] = system: human liver microsomes (HLM); conditions: cited from earlier work
[3] = system: 2D-HLCs (human stem-cell-derived hepatocyte-like cells); test: Cell viability (CellTiter-Glo 3D) in 2D monolayer HLCs; type: cell-based; conditions: racemate, 24 h, 0-20.0 mM
Description: as §4, §5

[4] = as above; type: cell-based, human; conditions: human; racemate, 2D-HLCs, 24 h exposure, 0-20.0 mM; read-out: EC50 (cytotoxicity)
Description: as §4, §5

[5] = system: human liver microsomes (HLM); test: Metabolism in ultra-pool human liver microsomes by GC-MS; type: in vitro ADME; conditions: HLM 1 mg protein/mL, 50 µM enantiomer, 0-60 min
Description: The metabolism of methylone and pentedrone was initially evaluated by incubation with ultra-pool human liver microsomes (HLM) at a final assay concentration of 1 mg protein/mL. All experiments were performed in duplicate. The incubation mixture with the HLM consisted of 1.3 mM NADP^+, 3.3 mM glucose-6-phosphate, 3.3 mM MgCl2, 0.4 IU/mL glucose-6-phosphate dehydrogenase, and 0.05 mM sodium citrate in 0.1 M phosphate buffer at pH 7.4. The incubation mixture with each drug was pre-incubated 10 min at 37 °C before the experiment was started with the addition of the HLM. All microsomes assays were incubated with 50 µM of each enantiomer in a final volume of 1 mL at 37 °C. At the time points 0, 5, 10, 20, 30, 40, 50, and 60 min, 100 µL aliquots of the incubations were quenched with 100 µL of ice-cold acetonitrile and methcathinone (internal standard) 100 µg/mL. The quenched solutions were centrifuged for 10 min at 4 °C and the supernatants were extracted with ethyl acetate after previous pH correction (pH = 11 for pentedrone and pH = 13 for methylone).
To study pentedrone and methylone metabolic profiles, we set up a methodology for the identification of pentedrone and methylone phase I metabolites based on a GC–MS methodology developed by Araujo et al. and Uralets et al. with some adaptations. […]

[6] = cited from earlier work
[7] = system: primary rat hepatocytes (PRH); conditions: read-out: EC50 (cytotoxic effects), racemic; cited from earlier work
[8] = Cell viability (CellTiter-Glo 3D) in 3D spheroid HLCs; type: cell-based, human; conditions: human; racemate, 3D-HLCs, 24 h exposure, 0-20.0 mM; read-out: EC50 (cytotoxicity)
Description: as §4, §5

Compound | preferential metabolic route of the enantiomer (2D-HLCs) | preferential metabolic route of the enantiomer (3D-HLCs) | enantioselectivity in cytotoxicity (SH-SY5Y cells) | enantioselectivity in intestinal absorption (permeability) (Caco-2 cell monolayer) | metabolite with the highest formation (2D-HLCs) | cytotoxicity compared to control cells [3] | EC50 at 24 h [4] [mM] | metabolite with the highest formation (3D-HLCs) | phase I metabolites identified [5] | liver-to-blood ratio [6] | pEC50 [7] | EC50 at 24 h [8] [mM] | concentrations at which cytotoxicity was observed [1] | other results
CN[C@H](C)C(=O)c1ccc2c(c1)OCO2 [R-(+)-methylone] | preferentially metabolized by O-demethylation and N-hydroxylation | preferentially metabolized by all metabolic routes, except for O-demethylation | most cytotoxic |  |  |  |  |  |  |  |  |  |  | 
CCC[C@@H](NC)C(=O)c1ccccc1 [R-(−)-pentedrone] | preferentially metabolized by all metabolic routes | preferentially metabolized by β-keto reduction |  | most permeable |  |  |  |  |  |  |  |  |  | enantioselectivity in cytotoxicity ([1]; enantiomers at 1 mM, 3D cultures): most cytotoxic enantiomer
CCC[C@H](NC)C(=O)c1ccccc1 [S-(+)-pentedrone] |  |  | most cytotoxic |  |  |  |  |  |  |  |  |  |  | 
CNC(C)C(=O)c1ccc2c(c1)OCO2 (centres unmarked) [methylone] |  |  |  |  | N-Hydroxymethylone | significant cytotoxicity for all concentrations tested | 4.8 | N-Hydroxymethylone | N-hydroxymethylone, DHMC, dihydromethylone, and nor-methylone | ≤ 3 | 2.80 | 5.2 | > 3000 µM | enzymes metabolizing the drug [2]: initially metabolized by CYP2D6, with minor contributions of CYP1A2, CYP2B6, and CYP2C19
CCCC(NC)C(=O)c1ccccc1 (centres unmarked) [pentedrone] |  |  |  |  | dihydropentedrone | significant cytotoxicity for all concentrations tested | 2.8 | dihydropentedrone | dihydropentedrone and nor-pentedrone | up to 11 | 3.15 | 3.6 | higher than 1.0 mM | 
S-(−)-methylone | preferentially metabolized via N-demethylation |  |  | most permeable |  |  |  |  |  |  |  |  |  | 

Reference: publication PMC8953427, “Enantioselectivity of Pentedrone and Methylone on Metabolic Profiling in 2D and 3D Human Hepatocyte-like Cells” (Pharmaceuticals, 2022)
